Molecules are shown by their SMILES. In brackets after ≈: the same amount, converted by molar mass.

The test system of assay [1] is Bacillus subtilis. Briefly: Inhibition of Bacillus subtilis N-terminal hexahistidine-tagged FtsZ GTPase activity expressed in Escherichia coli BL21 (DE3) at 100 uM after 1 hr relative to control.
Assay [2] has as its system Escherichia coli. Briefly: Inhibition of Escherichia coli N-terminal hexahistidine-tagged FtsZ GTPase activity expressed in Escherichia coli BL21 (DE3) assessed as residual activity at 200 uM after 1 hr relative to control.
The subject of assay [3] is Bacillus subtilis. Briefly: Inhibition of Bacillus subtilis N-terminal hexahistidine-tagged FtsZ GTPase activity expressed in Escherichia coli BL21 (DE3) assessed as residual activity at 100 uM after 1 hr relative to control.
Assay [4] has as its system Escherichia coli. The assay can be described thus: Inhibition of Escherichia coli N-terminal hexahistidine-tagged FtsZ GTPase activity expressed in Escherichia coli BL21 (DE3) assessed as residual activity at 100 uM after 1 hr relative to control.
For assay [5], the system named is Escherichia coli. The assay can be described thus: Inhibition of Escherichia coli N-terminal hexahistidine-tagged FtsZ GTPase activity expressed in Escherichia coli BL21 (DE3) assessed as residual activity at 20 uM after 1 hr relative to control.
Assay [6] has as its system Bacillus subtilis. The assay can be described thus: Inhibition of Bacillus subtilis N-terminal hexahistidine-tagged FtsZ GTPase activity expressed in Escherichia coli BL21 (DE3) assessed as residual activity at 20 uM after 1 hr relative to control.
Assay [7] relates to Bacillus subtilis. The assay can be described thus: Inhibition of Bacillus subtilis N-terminal hexahistidine-tagged FtsZ GTPase activity expressed in Escherichia coli BL21 (DE3) assessed as residual activity at 200 uM after 1 hr relative to control.
The subject of assay [8] is Bacillus subtilis. Briefly: Antibacterial activity against Bacillus subtilis NBRC 3134 after overnight incubation by MTT assay. It counts as functional. (In general: Formazan colour is commonly taken as a measure of viable cells.)
Assay [9] relates to Bacillus subtilis. Briefly: Inhibition of Bacillus subtilis N-terminal hexahistidine-tagged FtsZ V307R mutant GTPase activity expressed in Escherichia coli BL21 (DE3) after 1 hr relative to wild type protein. The note with it: concentration not given here.
Assay [10] can be described thus: Uncompetitive inhibition of Bacillus subtilis N-terminal hexahistidine-tagged FtsZ GTPase activity expressed in Escherichia coli BL21 (DE3) after 1 hr by Lineweaver-Burk plot analysis.

`COc1c(CC=C(C)C)c(O)cc2oc(=O)c(-c3ccc(O)cc3O)cc12`: the fold change (FC) in the assay on Bacillus subtilis [1] was 0.8 to 7.7. Further, the Activity with Escherichia coli [2] was determined as 67.3%; in the assay on Bacillus subtilis [3], 52.3%; in the assay on Escherichia coli [4], 85.6%; with Escherichia coli [5] it was 95.9%; in the assay with Bacillus subtilis [6], 87.8%; with Bacillus subtilis [7], 30.4%.
For `CC(C)=CCc1cc(-c2coc3cc(O)cc(O)c3c2=O)cc(O)c1O`, the fold change (FC) with Bacillus subtilis [1] was 0.8 to 7.7. In addition, the Activity in the assay on Escherichia coli [2] came out at 93.1%; with Bacillus subtilis [3], 85.1%; in the assay with Escherichia coli [4] it was 98.3%; with Escherichia coli [5] it was 97.7%; with Bacillus subtilis [6], 89.1%; with Bacillus subtilis [7], 63.4%.
In general, MIC refers to the lowest concentration that inhibits growth of the organism. A high value points to weaker potency. The term inhibition denotes the percentage by which the read-out fell short of the control. Lower therefore signals a response near the control. A word on the Ki: it is a dissociation constant, usually derived from enzyme kinetics or from competition with a known ligand. Read a low Ki as a stronger hold on the target. In the assay with Bacillus subtilis [8], `COc1cc2oc(=O)c(-c3ccc(O)cc3O)cc2c(OC)c1CC=C(C)C` [GLYCYRIN] registered an MIC of 40 µM (≈ 15.3 µg/mL). Besides, the fold change (FC) with Bacillus subtilis [1] is 0.8 to 7.7. The same molecule returned an inhibition in the assay with Bacillus subtilis [9] of 60%. For the same molecule, the Activity with Escherichia coli [2] came out at 88.6%; in the assay on Bacillus subtilis [3], 17.5%; with Escherichia coli [4], 87.8%; with Escherichia coli [5], 103%; in the assay on Bacillus subtilis [6], 74.4%; with Bacillus subtilis [7] it was 17%. The Ki in assay [10] is 42.6 µM.
Take `CCN(CC)CCNc1nc(/C=C/c2ccc(Cl)cc2)nc2cc3ccccc3cc12`: the Activity in the assay on Escherichia coli [2] worked out at 7.7%; in the assay with Bacillus subtilis [3], 12.6%; in the assay on Escherichia coli [4], 12%; in the assay with Escherichia coli [5] it was 57.7%; with Bacillus subtilis [6] it was 75.3%; in the assay with Bacillus subtilis [7], 8%.
For the molecule `COc1c(CC=C(C)C)c(O)cc2oc(-c3ccc(O)cc3O)cc12`, the fold change (FC) in the assay with Bacillus subtilis [1] was in the range of 0.8 to 7.7. Besides, the Activity turned out to be 55.5% in the assay on Bacillus subtilis [3]; 73.5% in the assay on Escherichia coli [4]; 99.4% in the assay with Escherichia coli [5]; 98.1% in the assay with Bacillus subtilis [6]; 35.3% in the assay on Bacillus subtilis [7].
For `COc1c(CC=C(C)C)c(O)cc(O)c1-c1coc2cc(O)ccc2c1=O`, the fold change (FC) with Bacillus subtilis [1] lay in the range of 0.8 to 7.7. Also, the Activity is 106% in the assay with Escherichia coli [2]; 96.8% in the assay with Bacillus subtilis [3]; 105% in the assay with Escherichia coli [4]; 101% in the assay on Escherichia coli [5]; 97.4% in the assay with Bacillus subtilis [6]; 90.2% with Bacillus subtilis [7].
For the molecule `COc1cc2oc(-c3ccc(O)cc3O)cc2c(OC)c1CC=C(C)C`, in the assay with Bacillus subtilis [8], the MIC was determined as 5 µM (≈ 1.77 µg/mL). Moreover, the fold change (FC) with Bacillus subtilis [1] lay in the range of 0.8 to 7.7. The molecule further registered an inhibition in the assay with Bacillus subtilis [9] of 60%. Besides, the Activity was 10.1% with Bacillus subtilis [3]; 63.2% in the assay with Escherichia coli [4]; 88.4% in the assay on Escherichia coli [5]; 37.4% in the assay with Bacillus subtilis [6]; 10.1% in the assay with Bacillus subtilis [7]. The Ki in [10] is 30.9 µM.
In the assay with Bacillus subtilis [8], `NC[C@H]1O[C@H](O[C@H]2[C@H](O)[C@@H](O[C@H]3O[C@H](CO)[C@@H](O)[C@H](N)[C@H]3O)[C@H](N)C[C@@H]2N)[C@H](O)[C@@H](O)[C@@H]1O` [KANAMYCIN] showed an MIC below 20 µM.
In the case of `CC(C)=CCc1cc(-c2oc3cc(O)cc(O)c3c(=O)c2O)ccc1O` [ISOLICOFLAVONOL], the MIC with Bacillus subtilis [8] was 40 µM (≈ 14.2 µg/mL). Besides, the fold change (FC) with Bacillus subtilis [1] was 0.8 to 7.7. This molecule had an inhibition in the assay on Bacillus subtilis [9] of 60%. The Activity in the assay on Bacillus subtilis [3] turned out to be 10.1%; in the assay with Escherichia coli [4] it was 61.2%; in the assay on Escherichia coli [5], 95.2%; with Bacillus subtilis [6], 48.5%; in the assay with Bacillus subtilis [7], 7.7%. This molecule displayed a Ki in [10] of 37.7 µM.
